Source: ChEMBL document CHEMBL5042487, “Design, synthesis, and biological activity evaluation of 2-(benzo[b]thiophen-2-yl)-4-phenyl-4,5-dihydrooxazole derivatives as broad-spectrum antifungal agents” (Eur J Med Chem, 2022)
≈ marks a conversion by molar mass, not a printed value.

Tests used:
[1] = tested on: Candida albicans; experiment: Antifungal activity against Candida albicans GIM 2.194 assessed as inhibition of fungal growth by NCCLS protocol based method; format: functional
[2] = tested on: Candida albicans; experiment: Antifungal activity against fluconazole and itraconazole resistant Candida albicans 17# assessed as inhibition of fungal growth by NCCLS protocol based method; format: functional
[3] = Metabolic stability in human liver microsomes assessed as liver intrinsic clearance at 100 uM pre-incubated for 10 mins followed by NADPH-regenerating system and measured upto 60 mins by LC-MS/MS analysis; format: ADME, Microsome; conditions: time <=70 min, read-out: CLH
[4] = molecular target: Cytochrome P450 3A4 (Homo sapiens, UniProt P08684); experiment: Inhibition of CYP3A4 in human liver microsomes incubated for 10 mins in presence of NADPH by LC/MS/MS analysis; format: ADME
[5] = molecular target: Cytochrome P450 2C19 (Homo sapiens, UniProt P33261); experiment: Inhibition of CYP2C19 in human liver microsomes incubated for 10 mins in presence of NADPH by LC/MS/MS analysis; format: ADME
[6] = tested on: Cryptococcus neoformans; experiment: Antifungal activity against Cryptococcus neoformans GIM 2.209 assessed as inhibition of fungal growth by NCCLS protocol based method; format: functional
[7] = tested on: Candida albicans; experiment: Antifungal activity against Candida albicans SC5314 assessed as inhibition of fungal growth by NCCLS protocol based method; format: functional
[8] = Metabolic stability in human liver microsomes assessed as parent compound remaining at 100 uM pre-incubated for 10 mins followed by NADPH-regenerating system and measured upto 60 mins by LC-MS/MS analysis; format: ADME, Microsome; conditions: time <=70 min, read-out: Stability
[9] = Stability in human plasma assessed as half life incubated for 60 mins by LC-MS/MS analysis; format: ADME, cell-free
[10] = molecular target: T1, Cytochrome P450 1A2 (Homo sapiens, UniProt P05177); experiment: Inhibition of CYP1A2 in human liver microsomes incubated for 10 mins in presence of NADPH by LC/MS/MS analysis; format: ADME
T1 sequence (P05177 whole entry): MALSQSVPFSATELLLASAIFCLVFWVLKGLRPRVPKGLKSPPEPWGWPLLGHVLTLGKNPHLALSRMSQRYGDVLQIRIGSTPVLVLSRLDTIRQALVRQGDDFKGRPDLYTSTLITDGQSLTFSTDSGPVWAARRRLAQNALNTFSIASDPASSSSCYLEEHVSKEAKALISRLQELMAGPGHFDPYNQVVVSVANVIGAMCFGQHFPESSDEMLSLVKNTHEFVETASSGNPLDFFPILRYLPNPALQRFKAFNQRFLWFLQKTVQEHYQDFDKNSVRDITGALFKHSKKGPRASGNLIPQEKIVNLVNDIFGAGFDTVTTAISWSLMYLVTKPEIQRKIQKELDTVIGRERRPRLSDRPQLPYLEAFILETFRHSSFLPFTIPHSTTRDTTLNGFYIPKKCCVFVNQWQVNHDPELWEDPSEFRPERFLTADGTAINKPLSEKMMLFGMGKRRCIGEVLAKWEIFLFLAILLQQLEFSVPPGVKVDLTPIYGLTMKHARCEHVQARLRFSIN

[11] = tested on: Aspergillus fumigatus; experiment: Antifungal activity against Aspergillus fumigatus CGMCC 3.7795 assessed as inhibition of fungal growth by NCCLS protocol based method; format: functional
[12] = Metabolic stability in human liver microsomes assessed as parent compound remaining incubated upto 60 mins by LC-MS/MS analysis; format: ADME, Microsome; conditions: read-out: Stability
[13] = Metabolic stability in human liver microsomes assessed as microsomal intrinsic clearance at 100 uM pre-incubated for 10 mins followed by NADPH-regenerating system and measured upto 60 mins by LC-MS/MS analysis; format: ADME, Microsome; conditions: time <=70 min, read-out: CLH
[14] = molecular target: Cytochrome P450 2D6 (Homo sapiens, UniProt P10635); experiment: Inhibition of CYP2D6 in human liver microsomes incubated for 10 mins in presence of NADPH by LC/MS/MS analysis; format: ADME
[15] = Metabolic stability in human liver microsomes assessed as half life at 100 uM pre-incubated for 10 mins followed by NADPH-regenerating system and measured upto 60 mins by LC-MS/MS analysis; format: ADME, Microsome; conditions: time <=70 min
[16] = tested on: Candida albicans; experiment: Antifungal activity against fluconazole resistant Candida albicans CaR assessed as inhibition of fungal growth by NCCLS protocol based method; format: functional
[17] = Stability in human plasma assessed as compound remaining incubated for 120 mins by LC-MS/MS analysis; format: ADME, cell-free; conditions: 2 h
[18] = tested on: Candida tropicalis; experiment: Antifungal activity against Candida tropicalis GIM 2.183 assessed as inhibition of fungal growth by NCCLS protocol based method; format: functional
[19] = Stability in human plasma assessed as compound remaining incubated for 60 mins by LC-MS/MS analysis; format: ADME, cell-free; conditions: read-out: Stability
[20] = molecular target: Cytochrome P450 2C9 (Homo sapiens, UniProt P11712); experiment: Inhibition of CYP2C9 in human liver microsomes incubated for 10 mins in presence of NADPH by LC/MS/MS analysis; format: ADME
[21] = Half life in Sprague-Dawley rat at 2 mg/kg, iv measured upto 24 hrs by LC/MS/MS analysis; format: ADME, organism-based; conditions: in vivo
[22] = Clearance in Sprague-Dawley rat at 2 mg/kg, iv measured upto 24 hrs by LC/MS/MS analysis; format: ADME, organism-based; conditions: in vivo
[23] = AUC (0 to infinity) in Sprague-Dawley rat at 2 mg/kg, iv measured upto 24 hrs by LC/MS/MS analysis; format: ADME, organism-based; design: route intravenous, dose 2 mg/kg, time <=24; conditions: in vivo
[24] = Initial plasma concentration in Sprague-Dawley rat at 2 mg/kg, iv measured upto 24 hrs by LC/MS/MS analysis; format: ADME, organism-based
[25] = AUC(0 to last) in Sprague-Dawley rat at 2 mg/kg, iv measured upto 24 hrs by LC/MS/MS analysis; format: ADME, organism-based; design: route intravenous, dose 2 mg/kg, time <=24; conditions: in vivo
[26] = Volume of distribution at steady state in Sprague-Dawley rat at 2 mg/kg, iv measured upto 24 hrs by LC/MS/MS analysis; format: ADME, organism-based; conditions: in vivo, read-out: Vdss

Chain of Cytochrome P450 2C9 (P11712 whole entry): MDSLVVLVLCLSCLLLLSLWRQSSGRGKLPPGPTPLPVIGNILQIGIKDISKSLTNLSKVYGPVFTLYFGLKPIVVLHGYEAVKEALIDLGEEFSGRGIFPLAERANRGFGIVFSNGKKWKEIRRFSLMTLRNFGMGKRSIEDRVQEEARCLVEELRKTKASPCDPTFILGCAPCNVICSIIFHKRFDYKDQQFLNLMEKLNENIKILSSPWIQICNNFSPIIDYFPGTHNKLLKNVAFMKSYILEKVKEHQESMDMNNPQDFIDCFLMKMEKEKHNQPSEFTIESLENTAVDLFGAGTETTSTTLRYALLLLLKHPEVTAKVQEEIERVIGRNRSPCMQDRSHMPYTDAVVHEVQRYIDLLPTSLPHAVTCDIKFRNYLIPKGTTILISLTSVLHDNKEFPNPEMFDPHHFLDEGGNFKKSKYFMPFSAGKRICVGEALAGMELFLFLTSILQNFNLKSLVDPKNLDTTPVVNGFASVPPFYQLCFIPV
Chain of Cytochrome P450 3A4 (P08684 whole entry): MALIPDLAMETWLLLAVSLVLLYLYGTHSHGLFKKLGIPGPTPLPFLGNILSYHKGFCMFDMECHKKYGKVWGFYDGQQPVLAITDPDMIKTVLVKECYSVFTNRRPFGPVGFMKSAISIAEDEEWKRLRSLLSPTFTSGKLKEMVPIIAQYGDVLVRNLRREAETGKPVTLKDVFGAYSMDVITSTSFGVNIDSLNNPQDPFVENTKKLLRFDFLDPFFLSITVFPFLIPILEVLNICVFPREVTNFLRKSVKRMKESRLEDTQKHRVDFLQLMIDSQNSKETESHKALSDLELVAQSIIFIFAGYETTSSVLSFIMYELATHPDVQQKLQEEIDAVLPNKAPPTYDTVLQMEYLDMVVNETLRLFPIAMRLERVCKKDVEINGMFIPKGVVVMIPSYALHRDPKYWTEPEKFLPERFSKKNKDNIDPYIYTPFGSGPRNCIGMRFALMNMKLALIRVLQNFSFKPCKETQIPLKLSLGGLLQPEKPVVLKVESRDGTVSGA
Chain of Cytochrome P450 2D6 (P10635 whole entry): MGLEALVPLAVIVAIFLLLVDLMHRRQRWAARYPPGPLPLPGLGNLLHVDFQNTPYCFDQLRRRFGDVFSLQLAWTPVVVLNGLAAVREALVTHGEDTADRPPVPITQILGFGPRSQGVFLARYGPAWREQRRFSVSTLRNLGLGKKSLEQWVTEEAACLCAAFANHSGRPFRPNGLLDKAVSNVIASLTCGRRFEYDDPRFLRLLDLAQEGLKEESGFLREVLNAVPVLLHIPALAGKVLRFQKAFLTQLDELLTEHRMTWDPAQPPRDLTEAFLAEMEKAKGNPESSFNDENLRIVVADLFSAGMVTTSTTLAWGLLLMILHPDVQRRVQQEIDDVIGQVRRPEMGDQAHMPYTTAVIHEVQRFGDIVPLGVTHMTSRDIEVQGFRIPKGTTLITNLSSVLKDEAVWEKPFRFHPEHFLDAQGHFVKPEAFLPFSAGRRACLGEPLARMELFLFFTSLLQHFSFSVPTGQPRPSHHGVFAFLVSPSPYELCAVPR
Chain of Cytochrome P450 2C19 (P33261 whole entry): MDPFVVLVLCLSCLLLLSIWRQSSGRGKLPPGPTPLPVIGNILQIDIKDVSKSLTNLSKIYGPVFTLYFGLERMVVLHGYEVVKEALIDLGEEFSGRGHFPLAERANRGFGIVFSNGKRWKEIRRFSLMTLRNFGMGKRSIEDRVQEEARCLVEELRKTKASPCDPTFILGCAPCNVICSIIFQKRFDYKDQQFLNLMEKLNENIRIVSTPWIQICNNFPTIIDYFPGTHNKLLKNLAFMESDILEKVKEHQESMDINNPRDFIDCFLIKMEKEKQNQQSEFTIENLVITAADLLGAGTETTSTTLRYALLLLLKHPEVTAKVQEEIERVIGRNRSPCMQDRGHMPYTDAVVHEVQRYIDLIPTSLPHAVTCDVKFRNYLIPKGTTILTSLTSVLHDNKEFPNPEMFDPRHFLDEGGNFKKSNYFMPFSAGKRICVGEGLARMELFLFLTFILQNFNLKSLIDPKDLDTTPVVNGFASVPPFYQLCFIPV

Clc1ccc(C2(Cn3cncn3)COC(c3cc4ccc(Cl)cc4s3)=N2)cc1 (centres undefined) showed an MIC [1] of under 0.03 µg/mL, an MIC [2] of over 64 µg/mL and a CLint scaled at 100 µM [3] of 18 mL/min/kg. For the same compound, the IC50 [4] was 29.1 µM, the IC50 [5] was 168 nM and the MIC [6] was 0.5 µg/mL (≈ 1.16 µM). For the same compound, the MIC [7] was under 0.03 µg/mL, the remaining at 1 h, 100 µM [8] was 49.9% and the half-life [9] was over 289 min. The IC50 [10] was 5.67 µM, the MIC [11] was 2 µg/mL (≈ 4.66 µM) and the remaining at 1 h [12] was 77.3%. The microsomal CLint at 100 µM [13] was 20 µL/min/mg, the IC50 [14] was 47.6 µM and the half-life at 100 µM [15] was 69.4 min. It also gave an MIC [16] of 0.5 µg/mL (≈ 1.16 µM), a Stability [17] of 116.1% and an MIC [18] of 0.06 µg/mL (≈ 0.14 µM). The remaining at 1 h [19] was 92.7% and the IC50 [20] was 1500 nM.
Compound Fc1ccc(C2(Cn3cncn3)COC(c3ccc(-c4ccoc4)cc3)=N2)cc1 (centres undefined) has an MIC [1] of under 0.03 µg/mL, an MIC [6] of 0.25 µg/mL (≈ 0.644 µM) and an MIC [7] of under 0.03 µg/mL. For the same compound, the MIC [11] was 0.25 µg/mL (≈ 0.644 µM), the half-life at 100 µM [15] was 18.6 min and the MIC [18] was 0.125 µg/mL (≈ 0.322 µM).
With Fc1ccc(C2(Cn3cncn3)COC(c3cc4ccc(Cl)cc4s3)=N2)cc1 (centres undefined) the MIC [1] was under 0.03 µg/mL, the MIC [2] was over 64 µg/mL and the half-life [21] was 200 min. For the same compound, the clearance [22] was 69.4 mL/min/kg, the CLint scaled at 100 µM [3] was 15.5 mL/min/kg and the IC50 [4] was 10.1 µM. It also gave an IC50 [5] of 1040 nM, an MIC [6] of 0.25 µg/mL (≈ 0.606 µM) and an MIC [7] of under 0.03 µg/mL. It also gave a remaining at 1 h, 100 µM [8] of 54.6%, a half-life [9] of over 289 min and an IC50 [10] of 4.47 µM. For the same compound, the MIC [11] was 0.5 µg/mL (≈ 1.21 µM), the remaining at 1 h [12] was 82.6% and the microsomal CLint at 100 µM [13] was 17.2 µL/min/mg. It also gave an IC50 [14] of 31.3 µM, a half-life at 100 µM [15] of 80.5 min and an AUC(0-inf) [23] of 505 ng·h/mL. For the same compound, the MIC [16] was 0.5 µg/mL (≈ 1.21 µM), the Stability [17] was 108.2% and the C0 at 24 h [24] was 482 ng/mL. For the same compound, the MIC [18] was under 0.03 µg/mL, the remaining at 1 h [19] was 92.6% and the AUC(0-t) at 24 h [25] was 483 ng·h/mL. For the same compound, the IC50 [20] was 2870 nM and the Vd [26] was 10.3 L/kg.
Clc1ccc(C2(Cn3cncn3)COC(c3cc4ccc(Br)cc4s3)=N2)cc1 (centres undefined) gave an MIC [1] of under 0.03 µg/mL, an MIC [2] of over 64 µg/mL and an MIC [6] of 0.25 µg/mL (≈ 0.528 µM). The MIC [7] was under 0.03 µg/mL, the MIC [11] was 1 µg/mL (≈ 2.11 µM) and the MIC [16] was 0.5 µg/mL (≈ 1.06 µM). It also gave an MIC [18] of 0.06 µg/mL (≈ 0.127 µM).
Work on OC(Cn1cncn1)(Cn1cncn1)c1ccc(F)cc1F [FLUCONAZOLE] yielded an MIC [1] of 1 µg/mL (≈ 3.27 µM), an MIC [2] of over 64 µg/mL and an MIC [6] of 4 µg/mL (≈ 13.1 µM). It also gave an MIC [7] of 0.5 µg/mL (≈ 1.63 µM), a half-life [9] of over 289 min and an MIC [11] of over 64 µg/mL. The MIC [16] was over 64 µg/mL, the Stability [17] was 88.2% and the MIC [18] was 1 µg/mL (≈ 3.27 µM). The remaining at 1 h [19] was 86.7%.
